Test system: pea (cultivar 'Mozart')
Assay: Growth chamber pot test of Rhizobium strains on pea, biomass and nitrogen in plant tissue (Experiment 1)
Type: in vivo
Set-up: Total Nitrogen per Shoot: unit not given here
Conditions: 35 days; for % Nitrogen: shoot tissue
Method: • 1) To evaluate eight previously untested Rhizobium strains for their ability to enhance biomass accumulation and nitrogen in legume plant tissue. These eight strains are evaluated against known strains PBI #108 and PBI#101. Note that PBI #108 is a commercial strain of Rhizobium leguminosarum that can be obtained from the Australian Legume Inoculants Research Unit of the New South Wales Agriculture Horticultural Research & Advisory Station, Locked Bag 26, Gosford, New South Wales, 2250, Australia under the deposit number ALIRU SU303. PBI #101 is a strain available from the USDA under deposit number 2449. Experimental Design: Factorial Design: 2 Soil Types (Aberdeen soil, Kyle soil) • 1 Pea seed Cultivar (‘Mozart’) • 12 Seed Treatments (Uninoculated, Nitrogen, Eight untested strains, PBI #108, PBI #101) • Randomized Block. Strain Selection Criteria: • 1) Collected field soil was sifted through a ¼ inch screen to remove any lumps of soil, roots, other plant material, sticks, etc. The soil was then spread out to dry for a period of one week and then placed into plastic bins until needed. • 2) Pots (4-½ inch×5 inch deep) were then labeled according to treatment. A sterile square pieces of spun polyester (black landscape fabric) was then placed into the bottom of each of the pots to prevent the sand/soil mixture from draining out through the pots drainage holes. • 3) A 50% mixture of Kyle soil/silica sand or 50% Aberdeen soil/silica sand (Unimum Industries—industrial quartz) was used as a potting media. • 4) After filling each pot with the sand/soil mixture each pot was placed into a large plastic Ziploc™ bag. • 5) One day before seeding each pot was watered with 150 ml of tap water (non-sterile) and the bags were sealed until seeded. • 6) On the day of seeding 5.5 kg of pea seed—cultivar ‘Mozart’—was divided up into eleven 500 gram amounts and surfaced sterilized via the following method: • a) Place 500 grams of seed into a 2 liter glass Erlenmeyer flask • b) Cover the seeds with 95% Ethanol, let stand 60 seconds then drain. • c) Add a fresh preparation of a 50% bleach solution (1000 mls into 1000 mls water-2.6% NaOCl active), add seed, shake and let stand 5 minutes, then drain. • d) Rinse with 4 changes of R.O. water (non-sterile) followed by one rinse with sterile R.O. water. • 7) After surface sterilization each 500 g amount of seed was spread into an aluminum foil pan lined with sterile paper towel and blotted dry and then transferred into clean large Ziploc™ bags. • 8) After inoculation uninoculated and inoculated pea seeds were planted. Five pea seeds were placed into each pot 2 inches below the surface. Spoons and forceps used to plant the seed were washed and dried thoroughly between treatments. 9) The bags were then sealed and placed into a growth chamber that was set for the following conditions: [table] • 10) Each pot was placed into a plastic bin in a randomized block design (two bins contained one pot of each of the 24 treatments). A total of 20 bins were used to hold all of the treatments. Three times a week (Monday's, Wednesdays and Fridays) each plastic bin was moved one bin position to the right. This was done to ensure differences in light intensity/quality or temperature were consistent for each of the treatments inside the growth chamber. • 11) Bags were kept fully closed until 50% emergence was observed, then fully opened. • 12) Plants were checked daily and watered as required using tap water. • 13) After 35 days plants were photographed (digital image file) and then harvested.

Nitrogen
Shoot dry weights (mean) (Aberdeen soil): 0.45 grams per shoot
Total Nitrogen per Shoot (Aberdeen soil): 0.0144
% Nitrogen (Aberdeen soil): 3.18%
Shoot dry weights (mean) (Kyle soil): 0.46 grams per shoot
Total Nitrogen per Shoot (Kyle soil): 0.0131
Visual Assessment of Plant Color, Ranking Based on Color (Kyle soil, ranked from darkest green (1) to yellow/green (12)): 1
% Nitrogen (Kyle soil): 2.80%
